Assay results: patent EP2167056B1, “TRANSDERMAL AND TRANSMUCOSAL DRUG DELIVERY ENHANCERS” (priority 2007, dated 2008)
Like-named read-outs stand apart in the source and are kept apart here.

How the values were obtained:
[1] = test system: plasma glucose; assay: Intravenous administration of octapinol hydrochloride + insulin, reduction in plasma glucose; format: in vivo, Sprague Dawley male rats; settings: 1% octapinol hydrochloride + 0.2 IE insulin/kg intravenously, after 20 minutes
Description: A reduction in plasma glucose of about 40 % was observed after 20 minutes.
(§1) The plasma content of glucose was determined through measurement of the amount NADH formed in accordance with the below reactions. [drawing 4] glucose-6-phosphate + NAD^+ -----> 6-phosphogluconate + NADH + H^+

[2] = Franz diffusion cell permeation of hydromorphone hydrochloride with delmopinol analogues (Example 2); settings: 5 % hydromorphone hydrochloride in distilled water with 25 % delmopinol analogue
Description: The permeation test was carried out using a Franz diffusion cell with a diffusion area of 1.8 cm^2 as in Example 1. […] Penetration with or without addition of different delmopinol analogues was studied in 5 parallel tests (3 cells per test).

[3] = test system: plasma glucose; assay: Nasal absorption of insulin with octapinol hydrochloride, reduction in plasma glucose (Example 6); format: in vivo, Sprague Dawley male rats; settings: for D (%) total reduction in plasma glucose / Maximum reduction in plasma glucose (%): nasal, mean (S.D.), n=6
Description: Tests on the enhancement effect of octapinol (M1523), i.e.4-(2-propylpentyl)-1- 2-propylpentyl)-1-piperidine-ethanol, a compound according to Formula (I), for nasal absorption of peptides were carried out on Sprague Dawley male rats with an individual weight of 250-300 g. The rats were fasted for 15-17 hours and anaesthetized prior to the tests. Trachea and arteria carotis were catheterized with a polyethylene tube. The peptide used for the tests was insulin.
The rats were divided into 5 groups and were administered through the nostril via a polyethylene tube with • 1 % octapinol hydrochloride (placebo group) • insulin (Actrapid ® Human from NovoNordisk, Denmark) 5 IE/kg body weight in physiological NaCl (control group) • insulin 2.5 IE/kg body weight with 0.02% octapinol hydrochloride (test group) • insulin 2.5 IE/kg body weight with 0.2% octapinol hydrochloride (test group) • insulin 2.5 IE/kg body weight with 1% octapinol hydrochloride (test group) The pH-value was 3.1 in the test solutions. The administration volume per rat was 25-30 µl.
There were 4 rats in the placebo group, 3 rats in the control group and 6 rats in each of the three test groups.
During the initial tests octapinol hydrochloride was administered nasally together with insulin 5 IE/kg body weight. At an early stage, pronounced reductions in plasma glucose with 1% octapinol hydrochloride were noted.
In the control and test groups 150 µl blood was taken from arteria carotis 0, 10, 20, 30, 40, 50, 60, 120, 180 and 240 minutes respectively after administration.
as §1
The change in glucose content was set off against time and the area below the graph (AUC) was calculated with the trapezium method.
The total reduction in plasma glucose (D%) and the maximal reduction in plasma glucose after nasal administration of insulin with octapinol hydrochloride is given in Table 6. The total reduction in plasma glucose (D%) was calculated according to Hirai et al (Int. J. Pharmaceut., 9,173-184: 1981). D % = (AUCc −AUCin)/(AUCc) × 100 [formula] • AUCc= area under the graph for intranasally administered insulin 5 IE/kg body weight in physiological Na Cl (control group) • AUCin= area under the graph for intranasally administered insulin in octapinol solution Table 6

[4] = remark: listed apart in the source
Description: The permeation test was carried out using a Franz diffusion cell with a diffusion area of 1.8 cm^2 as in Example 1. […] 180 µl of 1 % nicotinic acid in distilled water with and without the addition of 25% delmopinol hydrochloride was used on the "donor" side of the skin. The nicotinic acid was ^14C-labeled. Penetration with and without addition of delmopinol hydrochloride was studied in 2 parallel tests (3 cells per test).
Radioactivity in the receiving" phase was read at different time intervals over a one week period. […]

[5] = Franz diffusion cell permeation of 3H-labeled TRH (Example 5); format: in vitro ADME, human
Description: A human full-skin sample was positioned in the cell with a 0.05 M phosphate buffer solution (pH 6.0) as receiving phase on the "receptor" side of the skin. 180 µl of 5 % thyroid-releasing hormone (TRH) in dist. water with and without the addition of 25% delmopinol hydrochloride was used on the "donor" side of the skin. The TRH was ^3H-labeled. Penetration with and without addition of delmopinol hydrochloride was studied in 2 parallel tests (4 cells per test).
Radioactivity in the receiving phase was read at different time intervals over a one week period.

[6] = format: in vitro ADME, human
Description: 180 µl of 1 % mannitol in distilled water with and without the addition of 1, 5, 10 and 25 % delmopinol hydrochloride respectively was used on the "donor" side of the skin. The mannitol was ^3H-labeled.
A very pronounced effect of the penetration enhancer was seen, but only little if any difference between the concentrations 5, 10 and 25 %, as shown in Table 4.

[7] = insulin 2.5 IE/kg with 0.02 % octapinol hydrochloride
[8] = insulin 2.5 IE/kg with 0.2 % octapinol hydrochloride
[9] = insulin 2.5 IE/kg with 1 % octapinol hydrochloride

Molecule: CCCC(CCC)CC1CCN(CCO)CC1 [M 1523 (octapinol)]
- reduction in plasma glucose [1]: about 40%
- Flux (of hydromorphone hydrochloride) [2]: 13 µg/h/cm^2
- change in plasma glucose level ([3]; 1% octapinol hydrochloride alone, nasally, four rats): No significant change
- reductions in plasma glucose, of the initial plasma glucose value ([3]; initial tests: nasal, insulin 5 IE/kg with 1% octapinol hydrochloride): 85 - 90%
- D (%) total reduction in plasma glucose [3, 7]: 3.6 (3.2) %
- Maximum reduction in plasma glucose (%) [3, 7]: 3.5 (2.9) %
- D (%) total reduction in plasma glucose [3, 8]: 9.5 (5.3) %
- Maximum reduction in plasma glucose (%) [3, 8]: 6.5 (3.5) %
- D (%) total reduction in plasma glucose [3, 9]: 23.8 (5.8) %
- Maximum reduction in plasma glucose (%) [3, 9]: 39.1 (11.3) %

Molecule: CCCC(CCC)CCCC1COCCN1CCO (stereo not shown) [delmopinol]
- steady state flux of morphine sulphate (10 % morphine sulphate in distilled water with 25% delmopinol hydrochloride): about 26 µg/h/cm^2
- factor by which permeation of hydromorphone hydrochloride is increased (in the presence of 25 % delmopinol versus without): about 290
- Flux (steady state flux of nicotinic acid) ([4]; pH 7.4): 1.5 µg/h/cm^2
- Flux (steady state flux of TRH) ([5]; pH 6): 34 ng/h/cm^2

Molecule: thyroid-releasing hormone (TRH) [reference compound]
- Flux (steady state flux of TRH) ([5]; 5 % TRH in dist. water without enhancer): 4 ng/h/cm^2

Molecule: OC[C@@H](O)[C@@H](O)[C@H](O)[C@H](O)CO [mannitol, reference compound]
- Flux (of mannitol) [6]: 6.6 µg/h/cm^2

Molecule: O=C(O)c1cccnc1 [nicotinic acid, reference compound]
- Flux (steady state flux of nicotinic acid) [4]: 0.15 µg/h/cm^2

Molecule: CCCCCCCCCCC1CN(CCCO)CCO1 (stereo not shown) [M 1676]
- Flux (of hydromorphone hydrochloride) [2]: 19 µg/h/cm^2

Molecule: CCCC(CCC)CCCC1COCC[N+]1(C)CCO.[Cl-] (stereo not shown) [M 1713, 4-(2-hydroxyethyl)-4-methyl-3-(4-propylheptyl)-morpholinium chloride]
- Flux (of hydromorphone hydrochloride) [2]: 4.8 µg/h/cm^2
